Assay results as given in patent publication US11674172B2, “PIRNA-54265 detection kit used for early screening, diagnosis, curative efficacy monitoring and prognostic evaluation of colorectal cancer” (SUN YAT-SEN UNIVERSITY, priority 2018, dated 2023).

Test system: colorectal cancer cell lines with stably overexpressed or knockdown piR-54265
Assay: IC50 experiments with chemotherapy drugs on colorectal cancer cell lines with overexpressed or knockdown piR-54265
Format: cell-based
Conditions: for cell chemosensitivity (change of IC50): cells after knocking down piR-54265, versus control; for chemoresistance of the colorectal cancer cells (change of IC50): cells overexpressing piR-54265, versus control
Source text: IC50 experiments with the first-line colorectal cancer chemotherapy drugs 5-FU and L-OHP were respectively performed on colorectal cancer cell lines with stably overexpressed or knockdown piR-54265. Subcutaneous xenograft tumors in nude mice were established using the stable cell lines mentioned above, and when a tumor volume reached 250 mm^3, treatment of intraperitoneal injection with 5-FU or L-OHP was started, and the change of the tumor volume was periodically measured.

Compound | cell chemosensitivity (change of IC50) | chemoresistance of the colorectal cancer cells (change of IC50)
O=c1[nH]cc(F)c(=O)[nH]1 [5-FU] | improved | enhanced
N[C@@H]1CCCC[C@H]1N.O=C([O-])C(=O)[O-].[Pt+2] [L-OHP] | improved | enhanced
